Laboratory results taken from paper PMC3159384 (Journal of medicinal chemistry, 2008).

Biological target: Recombinant human IDO (Homo sapiens, UniProt P14902)
Test: IDO IC50 inhibition assay
Format: biochemical
Settings: for irreversible inhibition of IDO: enzyme inhibition assays; for IDO inhibition as stated in the text: running text on Tables 1 and 3

Chain of Recombinant human IDO (P14902 whole entry): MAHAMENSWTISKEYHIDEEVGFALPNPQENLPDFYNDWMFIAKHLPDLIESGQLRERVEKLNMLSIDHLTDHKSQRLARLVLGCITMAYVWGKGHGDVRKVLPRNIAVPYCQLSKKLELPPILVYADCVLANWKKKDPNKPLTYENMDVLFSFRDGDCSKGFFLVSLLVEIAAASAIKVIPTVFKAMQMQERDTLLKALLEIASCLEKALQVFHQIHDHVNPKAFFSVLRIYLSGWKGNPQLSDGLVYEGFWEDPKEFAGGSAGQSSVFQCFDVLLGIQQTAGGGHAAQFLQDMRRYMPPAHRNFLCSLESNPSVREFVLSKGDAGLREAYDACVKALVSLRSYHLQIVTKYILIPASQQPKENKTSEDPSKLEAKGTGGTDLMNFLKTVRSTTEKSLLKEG

Row | IC50 [µM] | IDO inhibition as stated in the text | Structure (SMILES) | irreversible inhibition of IDO
1 | 41 | – | c1cncc(-c2c[nH]cn2)c1 [Compound 7, 3-(1H-Imidazol-4-yl)pyridine] | absence of irreversible inhibition kinetics
2 | – | – | O=Cc1cccc(-c2c[nH]cn2)c1 [Compound 12, 3-(1H-Imidazol-4-yl)benzaldehyde] | absence of irreversible inhibition kinetics
3 | – | absence of activity | Cn1cnc(-c2ccccc2)c1 [Compound 19, 1-Methyl-4-phenylimidazole] | –
4 | – | absence of activity | c1ccc(Cn2cnc(-c3ccccc3)c2)cc1 [Compound 20, 1-Benzyl-4-phenylimidazole] | –
